# In patent publication US12478671B2, “Sterols as novel immunomodulatory agents and their use as vaccine adjuvants” (Ohio State Innovation Foundation, priority 2017, dated 2025):
# Experiments:
# [1] = test system: RAW-Blue NF-kB/AP1 reporter cell line; assay: NF-κB and AP-1 activity assay (SEAP reporter, alkaline phosphatase activity); assay type: cell-based; conditions: 25 μM, 24 h, compared to vehicle alone (FIG. 1)
# Procedure: NF-κB and AP-1 Activity Assay. NF-kB and AP-1 activity was analyzed using the RAW-Blue NF-kB/AP1 reporter cell line (InvivoGen, San Diego, CA, USA), which contains a secreted embryonic alkaline phosphatase (SEAP) reporter construct, inducible by NF-κB and AP-1. Cells were cultured in RPMI 1640 medium supplemented with 10% FBS (Atlanta Biologicals, Flowery Branch, GA, USA) and 1% penicillin streptomycin (Life Technologies, Carlsbad, CA, USA), and stimulated with 25 μM PEN or DMSO (vehicle control) for 24 h. Culture supernatants were then collected and alkaline phosphatase activity was determined by incubating with the detection medium QUANTI-Blue (InvivoGen), and measuring at 655 nm using a SpectraMax spectrophotometer (Molecular Devices LLC, Sunnyvale CA, USA) and analyzed using Softmax Pro software (Molecular Devices LLC).
# [2] = test system: RAW macrophages (RAW 264.7); assay: Macrophage activation: surface expression of MHC-II, CD40, CD80, CD86 by flow cytometry; assay type: cell-based
# Procedure: (§1) Macrophage Activation. RAW macrophages (RAW 264.7 (ATCC TIB-71), ATCC, Manassas, VA, USA) were plated at a concentration of 0.5×10^6 cells per well in 24-well plates, and treated with PEN (25 μM or 50 μM) or DMSO (vehicle control) for 24, 48 and 72 h. At the indicated times, cells were harvested for detection of MHC-II, CD40, CD80, CD86 surface expression by flow cytometry. RNA was also extracted from cells to determine gene expression of Tnfα, Il1b, Il6, IL10, Il15, Il18, Nos2, Arg1, and Chil3 by RT-PCR.
# Flow Cytometry. Macrophages treated with PEN or the DMSO control were harvested, washed in PBS, blocked with normal mouse serum, and incubated with fluorochrome conjugated antibodies against the cell surface markers CD40, CD80, CD86 and MHC-II (Biolegend). Cells were acquired on a BD FACS Calibur (BD Biosciences) and analysis was performed using FlowJo software (Tree Star Inc, Ashland, OR, USA).
# [3] = test system: RAW macrophages (RAW 264.7); assay: Macrophage gene expression by RT-PCR; assay type: cell-based
# Procedure: as §1
# Real Time PCR. Total RNA was extracted from RAW macrophages using TRIzol reagent (Life Technologies). RNA was reverse-transcribed to cDNAs using an iScript reverse transcriptase kit (Bio-Rad, Hercules, CA, USA). Real-time PCR reactions using the IQ SYBR Green mix reagent were performed in a CFX96 RT-PCR cycler (Bio-Rad). Primer sequences for Tnfa, Illb, 116, IL10, 1115, 1118, Nos2, Argl and Chil3 were selected from the Primer Bank database (pga.mgh.harvard.edu/primerbank). Data were normalized to the reference gene β-actin and presented as fold induction over controls.
# [4] = test system: Bone marrow-derived dendritic cells (BMDCs); assay: Cytokine production (ELISA) by bone marrow-derived dendritic cells; assay type: cell-based, C57BL/6 mice
# Procedure: Isolation of Mouse Bone Marrow-derived Dendritic Cells. Bone marrow-derived dendritic cells (BMDCs) were prepared by harvesting bone marrow cells from the femurs and tibias of C57BL/6 mice. Red blood cell lysis was performed in ACK lysis buffer, and subsequent cells were plated in RPMI medium supplemented with 10% FBS, 1% penicillin-streptomycin (Life Technologies) and 20 ng/mL GM-CSF (Peprotech, Rocky Hill, NJ, USA) at 5 million cells/dish for 6 to 8 days. Cells were harvested then stimulated with PEN (25 μM or 50 μM) or DMSO for 24 h, and culture supernatants were collected for detection of IL-12 and IL-10 cytokines by ELISA.
# (§2) Cytokine ELISA. Purified anti-mouse antibodies against IFN-γ, IL-4, IL-10, IL-12 (Biolegend, San Diego, CA, USA) and IL-13 (eBiosciences, San Diego, CA, USA) were used to coat plates. Recombinant mouse IFN-γ, IL-4, IL-10, IL-12 and IL-13 (BD Biosciences, San Jose, CA, USA) were used as standards. Biotinylated anti-mouse antibodies for IFN-γ, IL-4, IL-10, IL-12 and IL-13 (Biolegend, San Diego, CA) were used as detection antibodies. AKP-streptavidin (BD Biosciences) and p-nitrophenylphosphate (PNPP, Thermo Fisher Scientific, Waltham, MA, USA) were used for detection. Absorbance was measured at 405 nm using a Spectramax microplate reader and data were analyzed by Softmax Pro software (Molecular Devices LLC, Sunnyvale, CA).
# [5] = test system: OT-II T cells co-cultured with BMDCs; assay: T cell co-culture with OVA-peptide-loaded BMDCs (CFSE proliferation, IFN-γ ELISA); assay type: cell-based, OT-II transgenic mice
# Procedure: T Cell Co-culture Experiments 5×10^4 BMDCs were pulsed with 10 μg/mL OVA323-339 peptide (Anaspec, Fremont, CA, USA) for 2 h, then incubated with PEN (25 μM or 50 μM) or DMSO (vehicle control) for 24 h. CFSE labeled T cells isolated from spleens of OT-II transgenic mice were added to the wells at a 1:4 (BMDC:T cell) ratio and incubated for 72 h. Antigen-specific T cell proliferation was analyzed by flow cytometry of CFSE stained cells. Cell co-culture supernatants were collected for analysis of IFN-γ cytokine production by ELISA.
# as §2
# [6] = test system: OVA-immunized mice; assay: Mouse immunization study: serum IgG1 and IgG2a antibody ELISA; assay type: in vivo, BALB/c mice; conditions: 10 μg and 100 μg with 100 μg OVA s.c., compared to vehicle controls (FIG. 6)
# Procedure: (§3) Mouse Immunization Studies. Six- to seven-week-old female BALB/c mice were purchased from Harlan Laboratories (Indianapolis, IN, USA). Mice were randomized into three groups, and immunized subcutaneously with 100 μg OVA (endotoxin free; BioVendor, Ashville, NC, USA) plus vehicle (Group 1), 100 μg OVA plus 10 μg PEN (Group 2), or 100 μg OVA plus 100 μg PEN (group 3, […]). Each group received respective boosting doses of treatment at weeks 2 and 4. Serum was collected from each mouse at every two weeks after initial immunization for detection of IgG1 and IgG2A antibodies by ELISA. Mice were euthanized at week 10 and spleens and lymph nodes were harvested for detection of cytokines IFN-γ, IL-4, IL-10 and IL-13 by ELISA after re-stimulation with 1 mg/mL OVA antigen for 72 h.
# Antibody ELISA. Mice were bled at weeks 2, 4, 6, 8 and 10 after immunization and serum was collected from the blood samples. IgG1 and IgG2a antibody titers were determined by ELISA using HRP-conjugated antibodies (Biolegend) and TMB substrate (KPL, Inc., Gaithersburg, MD, USA). Absorbance was measured at 450 nm by Spectramax microplate reader and data were analyzed by Softmax Pro software (Molecular Devices LLC).
# [7] = test system: OVA-immunized mice; assay: Mouse immunization study: cytokines of spleen and lymph node cells after ex vivo OVA re-stimulation; assay type: in vivo, BALB/c mice
# Procedure: as §3, §2
# [8] = both concentrations (25 μM, 50 μM), 72 h
smiles,measurement,setting,value
"C=C(CCC=C(C)C)[C@H]1CC[C@H]2[C@@H]3CCC4=CC(=O)CC[C@]4(C)[C@H]3CC[C@]12C [PEN, pentalinonsterol]",alkaline phosphatase activity (NF-κB/AP-1 SEAP reporter),[1],significantly increased
same,expression of CD40,"[2]; 25 μM and 50 μM, after 72 h (FIGS. 2A, 2E)",significantly enhanced
same,expression of MHC-II,"[2]; 25 μM and 50 μM, at 48 h and 72 h (FIGS. 2B, 2F)",significantly enhanced
same,expression of CD80,"[2]; 50 μM, 48 h",increased
same,expression of CD86,"[2]; 50 μM, 48 h",increased
same,expression of CD80,[2]; [8],increased
same,expression of CD86,[2]; [8],increased
same,transcript levels of Arg1,[3],increased
same,IL-15 gene transcripts,"[3]; 25 μM, after 24 h (FIG. 3E)",increased
same,IL-18 gene transcripts,"[3]; 25 μM, after 24 h (FIG. 3F)",increased
same,Il1b gene expression,"[3]; 24 and 48 h, not statistically significant (FIG. 3B)",increased trend
same,mRNA levels of Tnfα,[3]; 48 h (FIG. 3A),increases
same,mRNA levels of Il6,[3]; 48 h (FIG. 3C),increases
same,gene transcript levels of Nos2,[3]; after 48 h (FIG. 3D),significantly increased
same,transcript levels of Chil3,[3]; at 24 h and 48 h,significantly reduced
same,transcript levels of IL-10,[3]; at 48 h,significantly reduced
same,IL-10 production,"[4]; 50 μM, 24 h (FIG. 4B)",slight increase
same,production of IL-12,[4]; 24 h (FIG. 4A),significantly induces
same,T cell proliferation,"[5]; 72 h co-culture, PEN-treated vs DMSO-treated BMDCs (FIG. 4C)",higher
same,production of IFN-γ by T cells,"[5]; 72 h co-culture, PEN-treated vs DMSO-treated BMDCs (FIG. 4D)",significantly increased
same,"T cell responses (proliferation and IFN-γ), 50 μM compared to 25 μM",[5]; BMDCs treated with 50 μM vs 25 μM,greater
same,IgG1 antibody titers,[6],significantly increased
same,IgG2a antibody titers,[6],significantly increased
same,levels of IL-4,"[7]; culture supernatants of lymph node and splenic cells (FIGS. 7B, 7F)",increased
same,levels of IL-13,"[7]; culture supernatants of lymph node and splenic cells (FIGS. 7D, 7H)",increased
same,levels of IL-10,"[7]; culture supernatants of lymph nodes and spleens, PEN vs vehicle control (FIGS. 7C, 7G)",generally comparable
same,levels of IFN-γ,"[7]; lymph node cells and splenocytes, OVA re-stimulation (FIGS. 7A, 7E)",significantly increased
